test system: NCIH727 cells; experiment: Cancer cell line proliferation (CellTiter-Glo), NCI-H727; format: cell-based; settings: Homo sapiens, 72 h, NCIH727 lung carcinoid, heterozygous G12V
Protocol: Cell lines were cultured essentially according to ATCC recommendations.
SW620 and NCIH727 cells were plated in 384-well tissue culture plates at 1,000 cells/well and incubated at 37° C./5% CO2 for 72 hr in 40 μl of media. […] Each cell line was then treated with test compounds at various concentrations with a final concentration of 0.5% DMSO/well, and then incubated at 37° C./5% CO2 for 72 hr. 40 μl of CellTiter-Glo® Reagent (Promega Corporation, Madison, WI) was added to each well and processed according manufacturer's protocol. Results were analyzed and IC50 values were calculated in GraphPad 8.0 software.

Row | Compound | EC50
1 | C#Cc1c(F)ccc2cc(O)cc(-c3nc(OC)c4c(N5CC6CCC(C5)N6C(=O)C[C@H](C)C#N)nc(OCC5(CN6CC7CC7C6)CC5)nc4c3F)c12 (single isomer, unassigned) [Example 178] | 100 to 1000 nM
2 | C#Cc1c(F)ccc2cc(O)cc(-c3nc(OC)c4c(N5CC6CCC(C5)N6C(=O)C5(F)CC5)nc(OCC5(CN6CCC(F)CC6)CC5)nc4c3F)c12 [Example 66] | 100 to 1000 nM
3 | C#Cc1c(F)ccc2cc(O)cc(-c3nc(OC)c4c(N5CC6CCC(C5)N6C(=O)NCC(C)(C)F)nc(OCC5(CN6CCC(F)CC6)CC5)nc4c3F)c12 [Example 67] | 100 to 1000 nM
4 | C#Cc1c(F)ccc2cc(O)cc(-c3nc(OC)c4c(N5CC6CCC(C5)N6C(=O)N[C@H]5C[C@H]5F)nc(OCC5(CN6CCC(F)CC6)CC5)nc4c3F)c12 [Example 68] | > 1000 nM
5 | C#Cc1c(F)ccc2cc(O)cc(-c3nc(OC)c4c(N5CC6CCC(C5)N6C(=O)[C@H]5CC5(F)F)nc(OCC5(CN6CCC(F)CC6)CC5)nc4c3F)c12 [Example 69] | < 100 nM
6 | C#Cc1c(F)ccc2cc(O)cc(-c3nc(OC)c4c(N5CC6CCC(C5)N6CC5COC5)nc(OCC5(CN6CCC(F)CC6)CC5)nc4c3F)c12 [Example 70] | > 1000 nM
7 | C#Cc1c(F)ccc2cc(O)cc(-c3nc(OC)c4c(N5CC6CCC(C5)N6C(=O)[C@@H]5CC5(F)F)nc(OCC5(CN6CCC(F)CC6)CC5)nc4c3F)c12 [Example 72] | 100 to 1000 nM
8 | C#Cc1c(F)ccc2cc(O)cc(-c3nc(OC)c4c(N5CC6CCC(C5)N6C(=O)N[C@@H]5C[C@H]5F)nc(OCC5(CN6CCC(F)CC6)CC5)nc4c3F)c12 [Example 73] | 100 to 1000 nM
9 | C#Cc1c(F)ccc2cc(O)cc(-c3nc(C#C)c4c(N5CC6CCC(C5)N6C(=O)NC(C)(C)C)nc(OCC5(CN6CCC(F)CC6)CC5)nc4c3F)c12 [Example 74] | 100 to 1000 nM
10 | C#Cc1c(F)ccc2cc(O)cc(-c3nc(OC)c4c(N5CC6CCC(C5)N6C(=O)NCC5(F)COC5)nc(OCC5(CN6CCC(F)CC6)CC5)nc4c3F)c12 [Example 75] | 100 to 1000 nM
11 | C#Cc1c(F)ccc2cc(O)cc(-c3nc(OC)c4c(N5CC6CCC(C5)N6C(=O)NCC(F)(F)CO)nc(OCC5(CN6CCC(F)CC6)CC5)nc4c3F)c12 [Example 76] | 100 to 1000 nM
12 | C#Cc1c(F)ccc2cc(O)cc(-c3nc(OC)c4c(N5CC6CCC(C5)N6C(=O)C5C[C@H]5F)nc(OCC5(CN6CCC(F)CC6)CC5)nc4c3F)c12 (some centres unmarked) [Example 77] | < 100 nM
13 | C#Cc1c(F)ccc2cc(O)cc(-c3nc(OC)c4c(N5CC6CCC(C5)N6C(=O)[C@H]5C[C@@H]5F)nc(OCC5(CN6CCC(F)CC6)CC5)nc4c3F)c12 [Example 78] | 100 to 1000 nM
14 | C#Cc1c(F)ccc2cc(O)cc(-c3nc(OC)c4c(N5CC6CCC(C5)N6C(=O)NC5CCC(F)(F)C5)nc(OCC5(CN6CCC(F)CC6)CC5)nc4c3F)c12 (centres unmarked) [Example 79] | 100 to 1000 nM
15 | C#Cc1c(F)ccc2cc(O)cc(-c3nc(OC)c4c(N5CC6CCC(C5)N6C(=O)C5C[C@H]5C#N)nc(OCC5(CN6CCC(F)CC6)CC5)nc4c3F)c12 (some centres unmarked) [Example 80] | < 100 nM
16 | C#Cc1c(F)ccc2cc(O)cc(-c3nc(OC)c4c(N5CC6CCC(C5)N6C(=O)N[C@H]5CCC(F)(F)C5)nc(OCC5(CN6CCC(F)CC6)CC5)nc4c3F)c12 [Example 81] | < 100 nM
17 | C#Cc1c(F)ccc2cc(O)cc(-c3nc(OC)c4c(N5CC6CCC(C5)N6C(=O)N[C@@H]5CCC(F)(F)C5)nc(OCC5(CN6CCC(F)CC6)CC5)nc4c3F)c12 [Example 82] | 100 to 1000 nM
18 | C#Cc1c(F)ccc2cc(O)cc(-c3nc(OC)c4c(N5CC6CCC(C5)N6C(=N)NCC(F)(F)F)nc(OCC5(CN6CCC(F)CC6)CC5)nc4c3F)c12 [Example 85] | > 1000 nM
19 | C#Cc1c(F)ccc2cc(O)cc(-c3nc(OC)c4c(N5CC6CCC(C5)N6C(=O)NC5CC5(F)F)nc(OCC5(CN6CCC(F)CC6)CC5)nc4c3F)c12 (centres unmarked) [Example 86] | 100 to 1000 nM
20 | C#Cc1c(F)ccc2cc(O)cc(-c3nc(OC)c4c(N5CC6CCC(C5)N6C(=O)NC5CC[C@@H](F)C5)nc(OCC5(CN6CCC(F)CC6)CC5)nc4c3F)c12 (some centres unmarked) [Example 87] | 100 to 1000 nM
21 | C#CCNC(=O)N1C2CCC1CN(c1nc(OCC3(CN4CCC(F)CC4)CC3)nc3c(F)c(-c4cc(O)cc5ccc(F)c(C#C)c45)nc(OC)c13)C2 [Example 88] | < 100 nM
22 | C#Cc1c(F)ccc2cc(O)cc(-c3nc(OC)c4c(N5CC6CCC(C5)N6C(=O)NC5CCC5)nc(OCC5(CN6CCC(F)CC6)CC5)nc4c3F)c12 [Example 89] | < 100 nM
23 | C#Cc1c(F)ccc2cc(O)cc(-c3nc(OC)c4c(N5CC6CCC(C5)N6C(=O)Nc5cc(F)cc(F)c5)nc(OCC5(CN6CCC(F)CC6)CC5)nc4c3F)c12 [Example 90] | 100 to 1000 nM
24 | C#Cc1c(F)ccc2cc(O)cc(-c3nc(OC)c4c(N5CC6CCC(C5)N6C(=O)NC5CC(F)C5)nc(OCC5(CN6CCC(F)CC6)CC5)nc4c3F)c12 (centres unmarked) [Example 91] | < 100 nM

Row | Compound | EC50
25 | C#Cc1c(F)ccc2cc(O)cc(-c3nc(OC)c4c(N5CC6CCC(C5)N6C(=O)NC(C)C#N)nc(OCC5(CN6CCC(=C)CC6)CC5)nc4c3F)c12 (centres unmarked) [Example 93] | < 100 nM
26 | C#Cc1c(F)ccc2cc(O)cc(-c3nc(C#C)c4c(N5CC6CCC(C5)N6C(=O)C5CC5(F)F)nc(OCC5(CN6CCC(F)CC6)CC5)nc4c3F)c12 (centres unmarked) [Example 94] | 100 to 1000 nM
27 | C#Cc1c(F)ccc2cc(O)cc(-c3nc(C#C)c4c(N5CC6CCC(C5)N6C(=O)NC5CC5)nc(OCC5(CN6CCC(F)CC6)CC5)nc4c3F)c12 [Example 95] | 100 to 1000 nM
28 | C#CCNC(=O)N1C2CCC1CN(c1nc(OCC3(CN4CCC(F)CC4)CC3)nc3c(F)c(-c4cc(O)cc5ccc(F)c(C#C)c45)nc(C#C)c13)C2 [Example 96] | 100 to 1000 nM
29 | C#Cc1c(F)ccc2cc(O)cc(-c3nc(OC)c4c(N5CC6CCC(C5)N6C(=O)Nc5ccc6c(c5)CCO6)nc(OCC5(CN6CCC(F)CC6)CC5)nc4c3F)c12 [Example 97] | 100 to 1000 nM
30 | C#Cc1c(F)ccc2cc(O)cc(-c3nc(C#C)c4c(N5CC6CCC(C5)N6C(=O)NCC(F)(F)F)nc(OCC5(CN6CCC(F)CC6)CC5)nc4c3F)c12 [Example 100] | 100 to 1000 nM
31 | C#Cc1c(F)ccc2cc(O)cc(-c3nc(OC)c4c(N5CC6CCC(C5)N6C(=O)[C@H]5CC5(F)F)nc(OCC5(CN6CC7CC7C6)CC5)nc4c3F)c12 (some centres unmarked) [Example 102] | < 100 nM
32 | C#Cc1c(F)ccc2cc(O)cc(-c3nc(C#C)c4c(N5CC6CCC(C5)N6C(=O)CCC#N)nc(OCC5(CN6CCC(F)CC6)CC5)nc4c3F)c12 [Example 103] | 100 to 1000 nM
33 | C#Cc1c(F)ccc2cc(O)cc(-c3nc(OC)c4c(N5CC6CCC(C5)N6C(=O)COC)nc(OCC5(CN6CC7CC7C6)CC5)nc4c3F)c12 (centres unmarked) [Example 106] | 100 to 1000 nM
34 | C#Cc1c(F)ccc2cc(O)cc(-c3nc(OC)c4c(N5CC6CCC(C5)N6C(=O)CCN(C)C)nc(OCC5(CN6CC7CC7C6)CC5)nc4c3F)c12 (centres unmarked) [Example 107] | > 1000 nM
35 | C#Cc1c(F)ccc2cc(O)cc(-c3nc(OC)c4c(N5CC6CCC(C5)N6C(=O)CCOC)nc(OCC5(CN6CC7CC7C6)CC5)nc4c3F)c12 (centres unmarked) [Example 108] | 100 to 1000 nM
36 | C#Cc1c(F)ccc2cc(O)cc(-c3nc(OC)c4c(N5CC6CCC(C5)N6C(=O)N(C)CC#N)nc(OCC5(CN6CC7CC7C6)CC5)nc4c3F)c12 (centres unmarked) [Example 110] | > 1000 nM
37 | C#Cc1c(F)ccc2cc(O)cc(-c3nc(OC)c4c(N5CC6CCC(C5)N6C(=O)OC(C)(C)C#N)nc(OCC5(CN6CC7CC7C6)CC5)nc4c3F)c12 (centres unmarked) [Example 111] | < 100 nM
38 | C#Cc1c(F)ccc2cc(O)cc(-c3nc(OC)c4c(N5CC6CCC(C5)N6C(=O)C(C#N)C(C)(C)C)nc(OCC5(CN6CC7CC7C6)CC5)nc4c3F)c12 (centres unmarked) [Example 112] | > 1000 nM
39 | C#Cc1c(F)ccc2cc(O)cc(-c3nc(OC)c4c(N5CC6CCC(C5)N6C(=O)CCCC#N)nc(OCC5(CN6CC7CC7C6)CC5)nc4c3F)c12 (centres unmarked) [Example 113] | 100 to 1000 nM
40 | C#Cc1c(F)ccc2cc(O)cc(-c3nc(OC)c4c(N5CC6CCC(C5)N6C(=O)C5(C)CC5)nc(OCC5(CN6CC7CC7C6)CC5)nc4c3F)c12 (centres unmarked) [Example 114] | > 1000 nM
41 | C#Cc1c(F)ccc2cc(O)cc(-c3nc(OC)c4c(N5CC6CCC(C5)N6C(=O)C5(C#N)CC5)nc(OCC5(CN6CC7CC7C6)CC5)nc4c3F)c12 (centres unmarked) [Example 115] | 100 to 1000 nM
42 | C#Cc1c(F)ccc2cc(O)cc(-c3nc(OC)c4c(N5CC6CCC(C5)N6C(=O)C5(C(F)(F)F)CC5)nc(OCC5(CN6CC7CC7C6)CC5)nc4c3F)c12 (centres unmarked) [Example 116] | > 1000 nM
43 | C#Cc1c(F)ccc2cc(O)cc(-c3nc(OC)c4c(N5CCN(C(=O)CC#N)[C@@H](CC#N)C5)nc(OCC5(CN6CC7CC7C6)CC5)nc4c3F)c12 (some centres unmarked) [Example 117] | > 1000 nM
44 | C#Cc1c(F)ccc2cc(O)cc(-c3nc(OC)c4c(N5CC6CCC(C5)N6C(C)=O)nc(OCC5(CN6CC7CC7C6)CC5)nc4c3F)c12 (centres unmarked) [Example 120] | 100 to 1000 nM
45 | C#Cc1c(F)ccc2cc(O)cc(-c3nc(OC)c4c(N5CC6CCC(C5)N6C(C)C)nc(OCC5(CN6CC7CC7C6)CC5)nc4c3F)c12 (centres unmarked) [Example 121] | > 1000 nM
46 | C#Cc1c(F)ccc2cc(O)cc(-c3nc(OC)c4c(N5CC6CCC(C5)N6C(=O)CC(C)=O)nc(OCC5(CN6CC7CC7C6)CC5)nc4c3F)c12 (centres unmarked) [Example 122] | 100 to 1000 nM
47 | C#Cc1c(F)ccc2cc(O)cc(-c3nc(OC)c4c(N5CC6CCC(C5)N6C(=O)C(C)C#N)nc(OCC5(CN6CC7CC7C6)CC5)nc4c3F)c12 (centres unmarked) [Example 123] | 100 to 1000 nM

same assay, conditions: NCIH727 lung carcinoid, heterozygous G12V, 72 hr

Row | Compound | EC50
48 | C#Cc1c(F)ccc2cc(O)cc(-c3nc(OC)c4c(N5CC6CCC(C5)N6C(=O)C5C[C@H]5C#N)nc(OCC5(CN6CCC(F)CC6)CC5)nc4c3F)c12 (some centres unmarked) [Example 83] | 100 to 1000 nM
49 | C#Cc1c(F)ccc2cc(O)cc(-c3nc(OC)c4c(N5CC6CCC(C5)N6C(=O)C5C[C@H]5C#N)nc(OCC5(CN6CCC(F)CC6)CC5)nc4c3F)c12 (some centres unmarked) [Example 84] | < 100 nM
50 | C#Cc1c(F)ccc2cc(O)cc(-c3nc(OC)c4c(N5CC6CCC(C5)N6C(=O)NC5CC(F)C5)nc(OCC5(CN6CCC(F)CC6)CC5)nc4c3F)c12 (centres unmarked) [Example 92] | 100 to 1000 nM

Reference: US20260200946A1, “KRAS(G12V) INHIBITORS” (Ranok Therapeutics (Hangzhou) Co. Ltd., priority 2022, published 2026)
